From US7332495B2 (priority 2002, dated 2008)
Where a name gives a salt, the structure may show the parent alone. Read-outs that look alike come from different tables or passages of the source.

Columns and labels:
[1] = tested on: Kunming mice; experiment: Sedation: spontaneous activities recorded with alternating current tube; format: in vivo; conditions: for inhibition in vivo at 20 mg/kg: Mus musculus, ip, i.p. 20 mg/Kg, spontaneous activities; for Sedation (writhing model): 20 mg/kg, Table 5 summary
Description: Kunming mice were used, with a male-female ratio of 50-50%. […] After 30 minutes, acetic acid (0.7%, […] i.p.) was injected and the number of writhes was observed during a 5-minute period after acetic acid administration. The inhibition ratio of the writhing threshold was calculated. The alternating current tube is used to record the spontaneous activities for measuring sedation.

[2] = tested on: Kunming mice; experiment: Mice writhing model (acetic acid); format: in vivo; conditions: for inhibition in vivo at 20 mg/kg: ip, i.p. 20 mg/Kg, acetic acid 0.7% i.p. after 30 minutes, writhes in 5 minutes, read-out: Analgesia (inhibition ratio of writhing); for Writhing (K i): 20 mg/kg, Table 5 summary
Description: Kunming mice were used, with a male-female ratio of 50-50%. The test compound is administered i.p. (20 mg/Kg body weight) to the test groups, and physiological saline is administered P.O. (20 ml/Kg body weight) to the control group. After 30 minutes, acetic acid (0.7%, […] i.p.) was injected and the number of writhes was observed during a 5-minute period after acetic acid administration. The inhibition ratio of the writhing threshold was calculated. The alternating current tube is used to record the spontaneous activities for measuring sedation.
(§1) Two species of animals (mice and rats) and four types of pain testing models (i.p. 0.7% acetic acid, s.c. 5% formalin, hot plate 55° C., focused radiant heat) were used.

[3] = tested on: rat; experiment: Rat tail flick model (focused radiant heat); format: in vivo; conditions: for change in vivo at 20 mg/kg: Rattus norvegicus, po, read-out: increase (%) of tail flick time; for change in vivo at 20 mg/kg / After (s) tail flick time: orally 20 mg/kg; for After (s) tail flick time: 30-45 minutes after administration; for Increase (tail flick) (%): 20 mg/kg, Table 5 summary
Description: A 8.75 mm-projecting lamp (12 v, 50 w) was used to give out focused radiant heat. The terminal 3 cm of the tail is exposed to the heat. The intensity of the focused radiant heat is regulated by a transformer to ensure that the time required to elicit a tail flick response is within 3-5 seconds. The rat's pain threshold is pre-tested for 2-3 times; and only animals with stable reactions were used in the pharmaceutical test. The test substance is taken orally 20 mg/kg. The number of rats whose increase in time for eliciting a tail flick response is by 100% or more at the peak of the drug action (30-45 minutes after administration) is used to calculate analgesic effect.
as §1

[4] = tested on: rat; experiment: animal or person; conditions: for responders at 20 mg/kg: ip; for Increase (hot plate) (%): 20 mg/kg, Table 5 summary
Description: Using 55° C. hot plate pain threshold detector (available from Ninghai Baishi Electronic Medical Instrument Co., Zheijiang, China) the threshold change before and after administration of a pharmaceutical composition of the present invention is tested. […] hind paw was scrubbed with alcohol cotton ball before the experiment. The regular pain threshold was tested twice for each rat, the induced hind paw licking time being recorded as the pain threshold. Measurements were made at 20-30 minute intervals. Only rats with stable pain reaction were used in the pharmaceutical test.
as §1

[5] = Summary of all three algogenic models; format: in vivo; conditions: in words
Excerpt: All the compounds mentioned above have profound for further value development.

[6] = tested on: rat; experiment: Rat tail flick model (focused radiant heat); format: in vivo; conditions: po, read-out: Analgesia ED50
[7] = Rattus norvegicus, read-out: Analgesic ratio (Increase by 100%)
[8] = Rattus norvegicus, read-out: Analgesic ratio (More than 60 seconds)

| Compound | melting point | change in vivo at 20 mg/kg [3] [%] | After (s) tail flick time [3] [s] | responders at 20 mg/kg [4, 7] [%] | responders at 20 mg/kg [4, 8] [%] | further results |
| --- | --- | --- | --- | --- | --- | --- |
| COc1ccc(CN2CCN(CC(=O)c3ccccc3)CC2)cc1 (as salt: hydrochloride) [IV-10, N^1-(4-methoxybenzyl)-N^4-phenacyl piperazine] | 222 to 224 °C | – | – | – | – | – |
| O=C(CN1CCN(Cc2cccnc2)CC1)c1ccccc1 (as salt: hydrochloride) [IV-11, N^1-(3-pyridylmethyl)-N^4-phenacyl piperazine] | 225 to 226 °C | – | – | – | – | – |
| CC(C(=O)c1ccccc1)N1CCN(Cc2ccc(N)cc2)CC1 (stereo not drawn) (as salt: hydrochloride) [IV-13, N^1-(4-aminobenzyl)-N^4-(1-benzoylethyl)piperazine] | 244 to 246 °C (dec.) | – | – | – | – | – |
| O=C(CN1CCN(CCc2ccccc2)CC1)c1ccccc1 (as salt: hydrochloride) [IV-14, N^1-phenethyl-N^4-phenacyl piperazine] | 238 to 240 °C | – | – | – | – | – |
| COc1ccc(OC)c(CN2CCN(CC(=O)c3ccccc3)CC2)c1 (as salt: hydrochloride) [IV-15, N^1-(2,5-dimethoxybenzyl)-N^4-phenacyl piperazine] | 238 to 240 °C | – | – | – | – | – |
| Nc1ccc(C(=O)CN2CCN(Cc3ccccc3)CC2)cc1 (as salt: hydrochloride) [IV-16, N^1-benzyl-N^4-(4-aminophenacyl)piperazine] | 286 to 288 °C | – | – | – | – | – |
| O=C(CCN1CCN(Cc2ccccc2)CC1)c1ccccc1 (as salt: hydrochloride) [IV-17, N^1-benzyl-N^4-(2-benzoylethyl)piperazine] | 230 to 232 °C | – | – | – | – | – |
| CC(=O)Nc1ccc(C(=O)CN2CCN(Cc3ccc([N+](=O)[O-])cc3)CC2)cc1 (as salt: hydrochloride) [IV-18, N^1-(4-nitrobenzyl)-N^4-[(4-acetamido)phenacyl]piperazine] | 228 to 230 °C | – | – | – | – | – |
| O=C(CN1CCN(Cc2ccc3c(c2)OCO3)CC1)c1ccccc1 (as salt: hydrochloride) [IV-19, N^1-(3,4-methylenedioxybenzyl)-N^4-phenacyl piperazine] | 240 to 241 °C | – | – | – | – | – |
| O=C(CN1CCN(Cc2ccc(F)cc2)CC1)c1ccc(Cl)cc1 (as salt: hydrochloride) [IV-20, N^1-(4-fluorobenzyl)-N^4-(4-chlorophenacyl)piperazine] | 246 to 248 °C (dec.) | – | – | – | – | – |
| CC(=O)Nc1ccc(CN2CCN(CC(=O)c3ccccc3)CC2)cc1 (as salt: hydrochloride) [IV-21, N^1-(4-acetamidobenzyl)-N^4-phenacyl piperazine] | 238 to 240 °C | – | – | – | – | – |
| COc1ccc(CN2CCN(C(C)C(=O)c3ccc4c(Cl)c(OC)ccc4c3)CC2)cc1 (stereo not drawn) (as salt: hydrochloride) [IV-31, N^1-(4-methoxybenzyl)-N^4-[1-(5-chloro-6-methoxy-2-naphthoyl)ethyl]piperazine] | 222 to 224 °C | – | – | – | – | – |
| CC(c1ccccc1)N1CCN(CC(=O)c2ccccc2)CC1 (stereo not drawn) (as salt: hydrochloride) [IV-37, N^1-(1-phenylethyl)-N^4-phenacyl piperazine] | 242 °C (dec.) | – | – | – | – | – |
| C[C@H](c1ccccc1)N1CCN(CC(=O)c2ccccc2)CC1 (as salt: hydrochloride) [IV-38, N^1—(R-1-phenylethyl)-N^4-phenacyl piperazine] | 230 to 232 °C | – | – | – | – | – |
| Cc1ccc(C(=O)CN2CCN(C(C)c3ccccc3)CC2)cc1 (stereo not drawn) (as salt: hydrochloride) [IV-40, N^1-(1-phenylethyl)-N^4-(4-methylphenacyl)piperazine] | 230 to 232 °C | – | – | – | – | – |
| Cc1ccc(C(=O)CN2CCN([C@H](C)c3ccccc3)CC2)cc1 (as salt: hydrochloride) [IV-41, N^1—(R-1-phenylethyl)-N^4-(4-methylphenacyl)piperazine] | 231 to 232 °C | – | – | – | – | – |
| COc1ccc2cc(C(=O)C(C)N3CCN(C(C)c4ccccc4)CC3)ccc2c1Cl (stereo not drawn) (as salt: hydrochloride) [IV-43, N^1-(1-phenylethyl)-N^4-[1-(5-chloro-6-methoxy-2-naphthoyl)ethyl]piperazine] | 231 to 232 °C | – | – | – | – | – |
| COc1ccc(CN2CCN(CC(=O)c3ccccc3)CC2)cc1 [IV-10, N^1-(4-methoxybenzyl)-N^4-phenacyl piperazine] | – | 9.4 | 8.81 | 90 | 70 | inhibition in vivo at 20 mg/kg [1]: 99%; inhibition in vivo at 20 mg/kg ([2]; Mus musculus): 100% |
| O=C(CN1CCN(CCc2ccccc2)CC1)c1ccccc1 [IV-14, N^1-phenethyl-N^4-phenacyl piperazine] | – | 37.9 | 10.62 | 100 | 70 | Sedation (writhing model) [1]: 92; inhibition in vivo at 20 mg/kg [1]: 92%; Writhing (K i) [2]: 94; inhibition in vivo at 20 mg/kg ([2]; Mus musculus): 94%; Increase (tail flick) (%) [3]: 37.9%; Increase (hot plate) (%) [4]: 100%; Analgesic effect on all three algogenic models [5]: powerful analgesic effects; Sedative effect on all three algogenic models [5]: rather significant sedative effect |
| O=C(CN1CCN(Cc2ccc3c(c2)OCO3)CC1)c1ccccc1 [IV-19, N^1-(3,4-methylenedioxybenzyl)-N^4-phenacyl piperazine] | – | 6.7 | 8.58 | 70 | 50 | inhibition in vivo at 20 mg/kg [1]: 93%; inhibition in vivo at 20 mg/kg ([2]; Mus musculus): 97% |
| CC(=O)Nc1ccc(CN2CCN(CC(=O)c3ccccc3)CC2)cc1 [IV-21, N^1-(4-acetamidobenzyl)-N^4-phenacyl piperazine] | – | 28 | 9.72 | 100 | 50 | Sedation (writhing model) [1]: 92; inhibition in vivo at 20 mg/kg [1]: 92%; Writhing (K i) [2]: 100; inhibition in vivo at 20 mg/kg ([2]; Mus musculus): 100%; Increase (tail flick) (%) [3]: 28%; Increase (hot plate) (%) [4]: 100% |
| COc1cccc(CN2CCN(CC(=O)c3ccccc3)CC2)c1 [IV-25, N^1-(3-methoxybenzyl)-N^4-phenacyl piperazine] | – | 12 | 8.37 | 40 | 10 | inhibition in vivo at 20 mg/kg [1]: 88%; inhibition in vivo at 20 mg/kg ([2]; Mus musculus): 100% |
| Cc1ccc(C(=O)CN2CCN(C(C)c3ccc([N+](=O)[O-])cc3)CC2)cc1 (stereo not drawn) [IV-27, N^1-[1-(4-nitrophenyl)ethyl]-N^4-(4-methylphenacyl)piperazine] | – | 9.2 | 9.37 | 20 | 0 | inhibition in vivo at 20 mg/kg [1]: 74%; inhibition in vivo at 20 mg/kg ([2]; Mus musculus): 57%; Excitement ([4]; i.p. 20 mg/Kg): no; Sedation ([4]; i.p. 20 mg/Kg, grade symbols, key not given): no |
| CC(c1ccccc1)N1CCN(CC(=O)c2ccccc2)CC1 (stereo not drawn) [IV-37, N^1-(1-phenylethyl)-N^4-phenacyl piperazine] | – | 25 | 10.54 | 100 | 100 | inhibition in vivo at 20 mg/kg [1]: 90.1%; inhibition in vivo at 20 mg/kg ([2]; Mus musculus): 100% |
| Cc1ccc(C(=O)CN2CCN(C(C)c3ccccc3)CC2)cc1 (stereo not drawn) [IV-40, N^1-(1-phenylethyl)-N^4-(4-methylphenacyl)piperazine] | – | 8 | 7.88 | 10 | 10 | – |
| CC(=O)Nc1ccc(O)cc1 [Paracetamol, reference compound] | – | – | – | – | – | ED50 ([2]; Mus musculus, po, Mice, Acetic acid Writhing, read-out: Analgesia ED50): 132 mg/kg; ED50 ([4]; Rattus norvegicus, po, read-out: Analgesia ED50): 4320 mg/kg; ED50 [6]: > 5000 mg/kg |
